Measured values reported in paper PMC8151276, “An Integrated Approach toward NanoBRET Tracers for Analysis of GPCR Ligand Engagement” (Molecules, 2021).

How the values were obtained:
Format in all cases: binding
FZD8 = target: T1, FZD8 (Homo sapiens, UniProt Q9H461); assay: NanoBRET screen HiBiT-FZD8 in HEK293
T1 construct: purchased Promega (in-house HiBiT-GPCR construct library, NanoBRET)
Description: (§1) Each tracer candidate was screened across the entire library of HiBiT-GPCR constructs using NanoBRET as the detection modality. As depicted in Figure 4A, the specificity of interactions was evaluated through decrease in BRET due to competitive displacement of a bound tracer by excess parental compound. Each tracer was analyzed for binding to each HiBiT-GPCR fusion in the absence and in the presence of competing parental compound. Briefly, HEK293 cells were transfected with HiBiT-GPCR constructs diluted into promoterless DNA to reduce expression and maximize translocation to the cell surface. Each tracer candidate was then screened at concentrations of 1 μM and 0.1 μM across cells expressing these fusions. Cells were treated for 1.5 h with tracer either alone or in the presence of 20 μM competing parental compound (i.e., control). BRET was measured upon addition of purified LgBiT and subsequent complementation with HiBiT genetically fused to a GPCR. The specificity of interactions was assessed through a decrease in BRET signal due to competitive displacement of the bound tracer. To further gauge the robustness of these interactions, the fold response over the control (i.e., BRETtracer/BRETcontrol) was calculated. We chose a 1.5-fold response, which translates to ≥7-fold signal over noise as the minimal threshold required to score an interaction as positive. […]. Below we highlight the screening results obtained for our exemplary fluorescent tracers based on Clozapine, Amitriptyline and AZD1283.
(§2) HiBiT-GPCR DNA constructs were diluted in 10 mM Tris pH 8 to a final concentration of 0.01 μg/μL, arrayed in 96-well plates and stored at −20 °C. For transfection, HEK293 cells were suspended in Opti-MEM (without phenol red) supplemented with 2% fetal bovine serum (Seradigm) and 100 units/mL penicillin–streptomycin (Gibco) at a final concentration of 220,000 cells/mL and dispensed into white 96-well plates at 90 μL/well. Subsequent transfections and screens were carried using an Agilent Bravo Automated Liquid Handling Platform. First, the 96-well HiBiT DNA arrays were diluted 25-fold in Opti-MEM (without serum or phenol red) to a final concentration of 0.0004 μg/μL and 20 μL of the diluted DNAs were transferred into new 96-well plates. Next, promoterless carrier DNA (1 μg/μL) was diluted 25-fold (0.04 μg/μL) and then dispensed into the diluted arrays at 20 μL/well. Following brief mixing, Viafect transfection reagent (Promega) diluted 16-fold into Opti-MEM was dispensed into the plates at 40 μL/well. After mixing by pipetting, plates were incubated for 10 min on the pipetting station deck. The DNA-transfection reagent complexes were then added to plates containing cells. To facilitate the screen, 10 μL of DNA-transfection reagent complexes were added in duplicates to the top 4 and bottom 4 rows, resulting in two identical 48-well arrays per plate. Plates with transfected cells were incubated for 18–20 h at 37 °C/5% CO2. A screen of each tracer across the entire library using two different concentrations requires duplicate plates of transfected cells. Depending on the number of tracers being screened, transfections can be scaled up using the same ratios. The next day, for each tracer, four 20× screening solutions in tracer dilution buffer (Promega) were prepared: two duplicates at final concentration of 20 μM and two duplicates at a final concentration of 2 μM. A competing unmodified compound was added to one of each duplicate at a final concentration of 400 μM. The four resulting solutions were diluted 4-fold in Opti-MEM without serum or phenol red to generate 5× solutions (5 µM and 0.5 µM tracer +/− 100 μM competing compound). To screen the library, a BioTek MultiFlo FX liquid dispenser was used to dispense 22.5 µL of tracer solution to the top 4 rows and 22.5 µL tracer + competing compound solution to the 4 bottom rows. Plates were briefly mixed on an orbital shaker and incubated for 1.5 h at room temperature. […]

LGR6 = target: T2, LGR6 (Homo sapiens, UniProt Q9HBX8); assay: NanoBRET screen HiBiT-LGR6 in HEK293
T2 construct: purchased Promega (in-house HiBiT-GPCR construct library, NanoBRET)
T2 sequence (Q9HBX8 25-967): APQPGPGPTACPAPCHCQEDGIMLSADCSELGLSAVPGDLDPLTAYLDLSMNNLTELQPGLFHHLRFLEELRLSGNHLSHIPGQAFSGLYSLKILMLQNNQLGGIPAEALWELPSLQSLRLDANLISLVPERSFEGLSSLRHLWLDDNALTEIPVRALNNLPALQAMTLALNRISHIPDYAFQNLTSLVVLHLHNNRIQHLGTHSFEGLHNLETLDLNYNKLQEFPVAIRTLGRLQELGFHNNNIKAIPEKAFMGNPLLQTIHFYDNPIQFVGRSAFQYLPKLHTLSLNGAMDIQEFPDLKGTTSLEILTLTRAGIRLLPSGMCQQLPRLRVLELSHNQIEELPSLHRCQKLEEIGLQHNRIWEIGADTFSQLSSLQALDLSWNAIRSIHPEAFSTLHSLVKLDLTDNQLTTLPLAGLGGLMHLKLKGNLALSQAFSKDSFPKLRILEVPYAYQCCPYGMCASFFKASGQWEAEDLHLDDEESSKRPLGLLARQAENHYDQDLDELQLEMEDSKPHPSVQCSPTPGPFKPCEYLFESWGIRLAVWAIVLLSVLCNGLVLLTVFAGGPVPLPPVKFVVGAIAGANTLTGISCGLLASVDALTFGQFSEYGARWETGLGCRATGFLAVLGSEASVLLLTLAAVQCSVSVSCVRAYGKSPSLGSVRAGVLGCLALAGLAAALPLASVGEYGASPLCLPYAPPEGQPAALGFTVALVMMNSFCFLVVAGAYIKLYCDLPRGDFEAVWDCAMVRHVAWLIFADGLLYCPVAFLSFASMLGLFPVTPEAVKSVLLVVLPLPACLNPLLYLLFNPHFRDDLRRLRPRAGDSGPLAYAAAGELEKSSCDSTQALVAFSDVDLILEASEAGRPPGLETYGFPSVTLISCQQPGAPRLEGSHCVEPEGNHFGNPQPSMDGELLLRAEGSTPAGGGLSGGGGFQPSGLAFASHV
Description: as §1, §2

NMUR1 = target: T3, NMUR1 (Homo sapiens, UniProt Q9HB89); assay: NanoBRET screen HiBiT-NMUR1 in HEK293
T3 construct: purchased Promega (in-house HiBiT-GPCR construct library, NanoBRET)
T3 sequence (Q9HB89 1-426): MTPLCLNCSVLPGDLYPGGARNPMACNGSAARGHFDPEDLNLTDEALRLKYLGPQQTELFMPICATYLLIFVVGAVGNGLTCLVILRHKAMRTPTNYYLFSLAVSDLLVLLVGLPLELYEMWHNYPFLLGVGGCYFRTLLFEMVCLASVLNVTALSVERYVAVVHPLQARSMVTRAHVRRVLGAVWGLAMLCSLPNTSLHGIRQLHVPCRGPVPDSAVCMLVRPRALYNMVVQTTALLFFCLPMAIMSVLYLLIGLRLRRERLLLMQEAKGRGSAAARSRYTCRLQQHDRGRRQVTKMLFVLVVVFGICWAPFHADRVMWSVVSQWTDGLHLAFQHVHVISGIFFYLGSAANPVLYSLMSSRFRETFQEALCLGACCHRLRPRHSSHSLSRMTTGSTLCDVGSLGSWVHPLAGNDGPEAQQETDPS
Description: as §1, §2

T1 sequence (Q9H461 28-694): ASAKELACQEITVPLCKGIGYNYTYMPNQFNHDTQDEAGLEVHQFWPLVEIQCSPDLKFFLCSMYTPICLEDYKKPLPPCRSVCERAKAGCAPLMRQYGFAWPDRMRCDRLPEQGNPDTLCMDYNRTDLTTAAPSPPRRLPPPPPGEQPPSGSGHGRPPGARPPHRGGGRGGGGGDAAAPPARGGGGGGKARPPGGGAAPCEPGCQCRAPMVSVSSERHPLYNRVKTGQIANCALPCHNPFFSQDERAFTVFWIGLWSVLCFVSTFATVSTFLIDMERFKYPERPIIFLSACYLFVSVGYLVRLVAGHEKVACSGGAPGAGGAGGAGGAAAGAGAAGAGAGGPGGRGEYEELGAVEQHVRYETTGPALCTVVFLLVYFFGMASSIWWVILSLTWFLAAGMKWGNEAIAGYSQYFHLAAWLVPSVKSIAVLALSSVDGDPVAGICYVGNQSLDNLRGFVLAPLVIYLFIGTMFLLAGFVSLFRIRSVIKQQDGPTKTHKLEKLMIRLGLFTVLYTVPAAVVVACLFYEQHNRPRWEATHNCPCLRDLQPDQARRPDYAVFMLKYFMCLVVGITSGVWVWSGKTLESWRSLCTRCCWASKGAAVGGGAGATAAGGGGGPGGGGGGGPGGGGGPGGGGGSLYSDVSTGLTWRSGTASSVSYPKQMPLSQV

Structure (SMILES) | NanoBRET Fold Response (FZD8; FZD8, tracer 0.1μM) | NanoBRET Fold Response (FZD8; FZD8, tracer 1μM) | NanoBRET Fold Response (LGR6; LGR6, tracer 0.1μM) | NanoBRET Fold Response (LGR6; LGR6, tracer 1μM) | NanoBRET Fold Response (NMUR1; NMUR1, tracer 0.1μM) | NanoBRET Fold Response (NMUR1; NMUR1, tracer 1μM) | further results
COc1ccc2c(n1)c(CCNC(C)=O)cn2CCNC(=O)CCc1ccc2n1[B-](F)(F)[N+]1=C(c3ccc[nH]3)C=CC1=C2 [Azamelatonin-1-NB590] | – | – | – | – | – | – | NanoBRET Fold Response (FZD8; 0.1μM tracer): 1.39; NanoBRET Fold Response (FZD8; 1μM tracer): 0.81; NanoBRET Fold Response (LGR6; 0.1μM tracer): 1.03; NanoBRET Fold Response (LGR6; 1μM tracer): 0.55; NanoBRET Fold Response (NMUR1; 0.1μM tracer): 0.78; NanoBRET Fold Response (NMUR1; 1μM tracer): 0.97
CC(C)N(CC[C@H](c1ccccc1)c1cc(CCNC(=O)c2ccc(CNC(=O)CCc3ccc4n3[B-](F)(F)[N+]3=C(c5ccc[nH]5)C=CC3=C4)cc2)ccc1O)C(C)C [Tolterodine-BZ-NB590] | 1.00 | 1.02 | 1.31 | 0.94 | 0.78 | 1.02 | –
O=C(CCc1ccc2n1[B-](F)(F)[N+]1=C(c3ccc[nH]3)C=CC1=C2)NCCOCCOCCNC(=O)OCCOCCN1CCN(C2=Nc3ccccc3Sc3ccccc32)CC1 [Quetiapine-a-2-NB590] | 1.02 | 1.08 | 0.93 | 0.96 | 1.01 | 0.81 | –
Cc1cc2c(s1)Nc1ccccc1N=C2N1CCN(CCCNC(=O)CCOCCOCCOCCOCCNC(=O)CCc2ccc3n2[B-](F)(F)[N+]2=C(c4ccc[nH]4)C=CC2=C3)CC1 [Olanzapine-a-2-NB590] | 0.95 | 0.94 | 1.09 | 1.22 | 0.98 | 1.00 | –
O=C(CCc1ccc2n1[B-](F)(F)[N+]1=C(c3ccc[nH]3)C=CC1=C2)NCc1ccc(C(=O)NCCOCCOCCNCC(O)COc2cccc3ccccc23)cc1 (stereo not drawn) [Propranolol-3-NB590] | – | – | – | – | – | – | NanoBRET Fold Response (FZD8; FZD8, 0.1μM): 1.01; NanoBRET Fold Response (FZD8; FZD8, 1μM): 1.02; NanoBRET Fold Response (LGR6; LGR6, 0.1μM): 1.26; NanoBRET Fold Response (LGR6; LGR6, 1μM): 1.01; NanoBRET Fold Response (NMUR1; NMUR1, 0.1μM): 1.01; NanoBRET Fold Response (NMUR1; NMUR1, 1μM): 1.00
CN1CCN(C2=Nc3cc(Cl)ccc3N(CC(=O)NCCOCCOCCOCCOCCNC(=O)CCc3ccc4n3[B-](F)(F)[N+]3=C(c5ccc[nH]5)C=CC3=C4)c3ccccc32)CC1 [Clozapine-c-2-NB590] | – | – | – | – | – | – | NanoBRET Fold Response (FZD8; FZD8, 0.1μM tracer): 0.97; NanoBRET Fold Response (FZD8; FZD8, 1μM tracer): 1.04; NanoBRET Fold Response (LGR6; LGR6, 0.1μM tracer): 0.89; NanoBRET Fold Response (LGR6; LGR6, 1μM tracer): 0.91; NanoBRET Fold Response (NMUR1; NMUR1, 0.1μM tracer): 1.01; NanoBRET Fold Response (NMUR1; NMUR1, 1μM tracer): 1.00
O=C(CCc1ccc2n1[B-](F)(F)[N+]1=C(c3ccc[nH]3)C=CC1=C2)NCc1ccc(C(=O)NCCOCCC(=O)N[C@@H]2CC[C@@]3(O)[C@H]4Cc5ccc(O)c6c5[C@@]3(CCN4CC3CC3)[C@H]2O6)cc1 [Naltrexone-3-NB590] | 0.90 | 0.78 | 1.22 | 0.79 | 0.85 | 1.07 | –
CC(C)N(CC[C@H](c1ccccc1)c1cc(CCNC(=O)CCOCCOCCOCCOCCNC(=O)CCc2ccc3n2[B-](F)(F)[N+]2=C(c4ccc[nH]4)C=CC2=C3)ccc1O)C(C)C [Tolterodine-2-NB590] | 1.07 | 1.12 | 1.39 | 1.36 | 0.94 | 1.12 | –
COc1ccccc1N1CCN(CCCCN2C(=O)c3ccc(CNC(=O)CCOCCOCCOCCOCCNC(=O)CCc4ccc5n4[B-](F)(F)[N+]4=C(c6ccc[nH]6)C=CC4=C5)cc3C2=O)CC1 [NAN-190-2-NB590] | 0.95 | 1.03 | – | – | 0.99 | 0.98 | –
CN(CCC=C1c2ccccc2CCc2ccccc21)C(=O)CCOCCOCCOCCOCCNC(=O)CCc1ccc2n1[B-](F)(F)[N+]1=C(c3ccc[nH]3)C=CC1=C2 [Amitriptyline-e-2-NB590] | – | – | – | – | – | – | NanoBRET Fold Response (LGR6; tracer at 1μM): 1.16
CN(C)CCC=C1c2ccccc2CCc2ccc(C(=O)NCCNC(=O)CCOCCOCCOCCOCCNC(=O)CCc3ccc4n3[B-](F)(F)[N+]3=C(c5ccc[nH]5)C=CC3=C4)cc21 [Amitriptyline-a-2-NB590] | – | – | – | – | – | – | NanoBRET Fold Response (LGR6; tracer at 0.1μM): 0.93; NanoBRET Fold Response (LGR6; tracer at 1μM): 0.97; NanoBRET Fold Response (NMUR1; tracer at 0.1μM): 1.01; NanoBRET Fold Response (NMUR1; tracer at 1μM): 0.99
